“Also recorded” adds a separate entry of the source. Where two headings read alike, the source gives them in different places.
Key:
[1] = system: GI-101A tumors; parameters: species or system nude mice; details: mouse, in vivo
[2] = system: GLV-1h73; format: cell-based, vaccinia virus
[3] = system: GLV-1h71; format: cell-based, vaccinia virus
[4] = system: GLV-1h68; format: cell-based, vaccinia virus
[5] = system: GLV-1h74; format: cell-based, vaccinia virus
[6] = system: GI-101A tumors; details: mouse, in vivo
[7] = system: PANC-1 tumors; parameters: species or system nude mice; details: mouse, in vivo
[8] = system: A549 tumors; parameters: species or system nude mice; details: mouse, in vivo
[9] = system: PANC-1 tumors; format: in vivo, nude mice

COc1cccc2c1C(=O)c1c(O)c3c(c(O)c1C2=O)C[C@@](O)(C(=O)CO)C[C@@H]3O[C@H]1C[C@H](N)[C@H](O)[C@H](C)O1 [Doxorubicin, doxorubicin]
Effect on tumor growth [1]: did not have any effect on the rate of tumor growth

Nc1ccn(C[C@@H](CO)OCP(=O)(O)O)c(=O)n1 [cidofovir]
Number and size of plaques of GLV-1h73 [2]: significantly reduced
Plaque formation by GLV-1h73 [2]: smaller plaques
Size or number of plaques of GLV-1h73 vs control [2]: no significant differences
Plaque formation by GLV-1h71 [3]: smaller plaques; also recorded: almost completely inhibited
Size or number of plaques of GLV-1h71 vs control [3]: no significant differences
Plaque formation by GLV-1h68 [4]: smaller plaques; also recorded: almost completely inhibited
Size or number of plaques of GLV-1h68 vs control [4]: no significant differences
Number and size of plaques of GLV-1h74 [5]: significantly reduced
Plaque formation by GLV-1h74 [5]: smaller plaques
Size or number of plaques of GLV-1h74 vs control [5]: no significant differences
Interference with tumor therapy by the virus [6]: did not significantly interfere
Survival time of GLV-1h74 injected mice [6]: significantly extended

Nc1ccn([C@@H]2O[C@H](CO)[C@@H](O)C2(F)F)c(=O)n1 [Gemcitabine]
Effect on tumor growth [7]: moderately decreased tumor growth
Effect on tumor growth [8]: increased tumor growth

N.N.[Cl][Pt][Cl] [Cisplatin, cis-diamminedichloroplatinum]
Effect on tumor growth ([9]; PANC-1): unable to arrest tumor growth
Median tumor volume ([9]; day 36 post-implantation): 170.2 mm^3
Median tumor volume ([9]; day 46): 296.6 mm^3
Median tumor volume ([9]; day 52): 254.95 mm^3
Median tumor volume ([9]; day 57): 326.2 mm^3
Median tumor volume ([9]; day 63): 460.3 mm^3
Median tumor volume ([9]; day 72): 663.4 mm^3
Median tumor volume ([9]; day 79): 1022.0 mm^3
Median tumor volume ([9]; day 86): 1718.3 mm^3
Median tumor volume ([9]; day 94): 2520.4 mm^3
Median tumor volume ([9]; day 100): 3254.1 mm^3
Effect on tumor growth [1]: decreased the rate of tumor growth, but did not shrink tumors
